Activity calls are given as the source filed them.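 Rule for the calls: active = EC50 of 10 µM or lower; inactive = EC50 above 10 µM.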
What follows are compounds tested on DHL10 Bax/Bak-deficient cells, cytotoxicity, MTS absorbance (assay: DHL10 Bax/Bak-null cell killing – MTS absorbance, EC50, counter-screen for MCL1-BIM inhibitor project, late-stage follow-up (AID 493058)).

| SMILES | EC50 |
| --- | --- |
| COc1ccc(-c2cc(=O)oc3cc(OCC(=O)N4CC4)ccc23)cc1 | > 25 µM (inactive) |
| COc1ccc(Cc2nnc(NC(=O)C(=O)c3ccco3)s2)cc1OC | > 25 µM (inactive) |
| O=C(Nc1cccc(F)c1)c1cc(-c2ccco2)nc2ccccc12 | > 25 µM (inactive) |
| COc1ccc(NC(=O)c2cc(-c3ccc(C)o3)nc3ccccc23)cc1 | > 25 µM (inactive) |
| COc1cccc(NC(=O)CN(C)C(=O)c2cc(-c3ccco3)nc3ccccc23)c1 | > 25 µM (inactive) |
| COc1ccc(Cc2nnc(NC(=O)Cc3cccs3)s2)cc1 | > 25 µM (inactive) |
| COCCCN(C(=O)c1cc(-c2ccco2)nc2ccccc12)c1c(N)n(Cc2ccccc2)c(=O)[nH]c1=O | > 25 µM (inactive) |
| CCC(=O)Nc1nnc(Cc2ccccc2)s1 | > 25 µM (inactive) |
| Cc1ccc(-c2cc(C(=O)N3CC(C)OC(C)C3)c3ccccc3n2)o1 (configuration not stated) | > 25 µM (inactive) |
| CCCCn1c(N)c(N(CC(C)C)C(=O)c2cc(-c3ccco3)nc3ccccc23)c(=O)[nH]c1=O | > 25 µM (inactive) |
| COc1ccc(Cc2nnc(NC(=O)Cc3ccc(Oc4ccccc4)cc3)s2)cc1OC | > 25 µM (inactive) |
| Cc1ccc(NC(=O)c2cc(-c3ccco3)nc3ccccc23)cc1S(=O)(=O)N1CCOCC1 | > 25 µM (inactive) |
| NS(=O)(=O)c1ccc(CCNC(=O)c2cc(-c3ccco3)nc3ccccc23)cc1 | > 25 µM (inactive) |
| Cc1ccc(-c2cc(C(=O)Nc3ccccc3C)c3ccccc3n2)o1 | > 25 µM (inactive) |
| Cc1ccc(-c2cc(C(=O)NCCN3CCOCC3)c3ccccc3n2)o1 | > 25 µM (inactive) |
| COCCN(C(=O)c1cc(-c2ccco2)nc2ccccc12)c1c(N)n(Cc2ccccc2)c(=O)[nH]c1=O | > 25 µM (inactive) |
| O=C(Nc1ccccc1F)c1cc(-c2ccco2)nc2ccccc12 | > 25 µM (inactive) |
| O=C(Nc1cccc(S(=O)(=O)NC2=NCCC2)c1)c1cc(-c2ccco2)nc2ccccc12 | > 25 µM (inactive) |
| O=C(c1cc(-c2ccco2)nc2ccccc12)N1CCCC(C(F)(F)F)C1 (configuration not stated) | > 25 µM (inactive) |

| SMILES | EC50 |
| --- | --- |
| Cc1ccc(-c2cc(C(=O)N3CCOCC3)c3ccccc3n2)o1 | > 25 µM (inactive) |
| CN(C)C(CNC(=O)c1cc(-c2ccco2)nc2ccccc12)c1ccccc1 (configuration not stated) | > 25 µM (inactive) |
| COc1ccc(CCNC(=O)c2cc(-c3ccco3)nc3ccccc23)cc1 | > 25 µM (inactive) |
| CN(C)C(=O)c1ccc(NC(=O)c2cc(-c3ccco3)nc3ccccc23)cc1 | > 25 µM (inactive) |
| CCN(CC)C(=O)COc1ccc2c(-c3ccc(OC)cc3)cc(=O)oc2c1 | > 25 µM (inactive) |
| CCOC(=O)c1cc(-c2ccco2)nc2c1c(C)nn2-c1ccccc1 | > 25 µM (inactive) |
| CC1CCCN(C(=O)c2cc(-c3ccco3)nc3ccccc23)C1 (configuration not stated) | > 25 µM (inactive) |
| O=C(c1cc(-c2ccco2)nc2ccccc12)N(Cc1nnc(-c2ccc(Cl)cc2)o1)C1CC1 | > 25 µM (inactive) |
| COc1cccc(NC(=O)c2cc(-c3ccc(C)o3)nc3ccccc23)c1 | > 25 µM (inactive) |
| COc1ccc(NC(=O)c2cc(-c3ccc(C)o3)nc3ccccc23)cc1OC | > 25 µM (inactive) |
| COc1ccc(NC(=O)c2cc(-c3ccco3)nc3ccccc23)cn1 | > 25 µM (inactive) |
| CCCCCCNC(=O)c1cc(-c2ccco2)nc2ccccc12 | > 25 µM (inactive) |
| COc1ccc(Cc2nnc(NC(=O)Cc3csc4ccccc34)s2)cc1OC | > 25 µM (inactive) |
| COc1ccc(Cc2nnc(NC(=O)Cc3cc(F)cc(F)c3)s2)cc1OC | > 25 µM (inactive) |
| Cc1cccc(NC(=O)c2cc(-c3ccco3)nc3ccccc23)n1 | > 25 µM (inactive) |
| COc1ccccc1CC(=O)Nc1nnc(Cc2ccc(OC)c(OC)c2)s1 | > 25 µM (inactive) |
| O=C(Nc1ccccc1N1CCOCC1)c1cc(-c2ccco2)nc2ccccc12 | > 25 µM (inactive) |
| CCN(CC)CCNC(=O)c1cc(-c2ccco2)nc2ccccc12 | > 25 µM (inactive) |
